The text below walks through data of US8889671B2, “Compounds and methods for treating bacterial infections” (AstraZeneca AB, priority 2013, dated 2014).

≈ marks a conversion by molar mass, not a printed value. Like-named read-outs stand apart in the source and are kept apart here.

The term IC50 denotes the concentration needed to halve the response being measured.

Test [1] has as its target Escherichia coli DNA gyrase A/B tetramer (Escherichia coli (strain K12), UniProt P0AES4+P0AES6). Nature of the test: DNA gyrase supercoiling activity fluorescence polarisation assay. Type of test: biochemical. To be noted: 0.3 mM ATP. The method in brief: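 Relaxed triplex-forming plasmid (130 micrograms/mL) supercoiled by 5 nM gyrase A/B tetramer in Tris-HCl pH 7.5 buffer with 4 mM MgCl2 and 0.3 mM ATP, ~30 min, ambient temperature. Quenched with 5′-BODIPY-FL triplex probe at pH 3.5; fluorescence anisotropy read after 60 min. IC50 by nonlinear regression against two control reactions.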
A general note: Polarisation of emitted light reports the rotation of a fluorescent probe.

In a further test the test system is Staphylococcus aureus. The test is described as follows: Susceptibility testing (MIC) Assay 1, broth microdilution. Type of test: cell-based. Background: Broth dilution looks for growth in wells or tubes with falling amounts of substance.
Another test concerns Streptococcus pneumoniae. Described as above. Type of test: cell-based.
Another test relates to Streptococcus pyogenes. Described as above. Type of test: cell-based. The conditions noted are these: Streptococcus pyrgenes, in vivo strain, read-out: Spy MIC.
The next test relates to Klebsiella pneumoniae. Nature of the test: Susceptibility testing (MIC) Assay 2, broth microdilution. Type of test: cell-based. To be noted: clinical isolate, mucoid, read-out: Kpn MIC.
The next test relates to Escherichia coli. Described as above. To be noted: K12, read-out: Eco MIC. Type of test: cell-based.
A further test concerns Pseudomonas aeruginosa. The test is described as above. Type of test: cell-based. The conditions noted are these: for Pae MIC: PAO1; for MIC: PAO1, read-out: Pae MIC.
For the next test, the system named is Haemophilus influenzae. The description is as above. Type of test: cell-based. The conditions noted are these: ATCC 51907, in vivo strain, read-out: Hin MIC.
The mark [2] stands for this setting: E. coli DNA gyrase supercoiling, read-out: Eco Gyr FP Mean IC50.
The mark [3] stands for this setting: Staphylococcus aureus in vivo strain, MSQS, read-out: Sau(d) MIC.
Where [4] appears, read: Staphylococcus aureus, in vivo strain, MRQR, read-out: Sau(e) MIC.
Setting [5] is: Staphylococcus aureus, serum, read-out: Sau(f) MIC.
Where [6] appears, read: in vivo strain (footnote b), read-out: Spn(b) MIC.
Where [7] appears, read: in vivo strain (footnote c), read-out: Spn(c) MIC.
Where [8] appears, read: Eco Gyr FP Mean IC50, E. coli DNA gyrase supercoiling.
Where [9] appears, read: Staphylococcus aureus, Staphylococcus aureus in vivo strain, MSQS, read-out: Sau(d) MIC.
The mark [10] stands for this setting: ATCC51907, Haemophilus influenzae.

As to `C[C@@H]1CN2c3c(cc4c(N5C(=O)OC[C@@H]5CCCO)noc4c3Cl)CC3(C(=O)NC(=O)NC3=O)[C@H]2[C@H](C)O1` [Example 33, (2R,4S,4aS)-11-Chloro-8-((S)-4-(3-hydroxpropyl)-2-oxooxazolidin-3-yl)-2,4-dimethyl-2,4,4a,6-tetrahydro-1H,1′H-spiro[isoxazolo[4,5-g][1,4]oxazino[4,3-a]quinoline-5,5′-pyrimidine]-2′,4′,6′(3′H)-trione], the half-inhibitory concentration (IC50) in test [1] (setting [2]) was 260 nM. For the same compound, the MIC in the test with Staphylococcus aureus (setting [3]) is 3.1 µM (≈ 1.7 µg/mL); with Staphylococcus aureus (setting [4]), 12 µM (≈ 6.58 µg/mL); in the test on Staphylococcus aureus (setting [5]), 6.2 µM (≈ 3.4 µg/mL); with Streptococcus pneumoniae (setting [6]) it was 0.39 µM (≈ 0.214 µg/mL); in the test with Streptococcus pneumoniae (setting [7]), 0.39 µM (≈ 0.214 µg/mL); in the test with Streptococcus pyogenes, 0.39 µM (≈ 0.214 µg/mL). For the same compound, the MIC in the test on Klebsiella pneumoniae is recorded as above 200 µM; with Escherichia coli it was 100 µM (≈ 54.8 µg/mL); in the test with Haemophilus influenzae, 0.78 µM (≈ 0.427 µg/mL). Also, the “Pae MIC” value in the test with Pseudomonas aeruginosa was above 200 µM.
Compound `CC[C@@H]1CN(c2noc3c(F)c4c(cc23)CC2(C(=O)NC(=O)NC2=O)[C@H]2[C@H](C)O[C@H](C)CN42)C(=O)O1` [Example 14, (2R,4S,4aS)-8-[(5R)-5-Ethyl-2-oxo-1,3-oxazolidin-3-yl]-11-fluoro-2,4-dimethyl-1,2,4,4a-tetrahydro-2′H,6H-spiro[1,4-oxazino[4,3-a][1,2]oxazolo[4,5-g]quinoline-5,5′-pyrimidine]-2′,4′,6′(1′H,3′H)-trione] returned an IC50 in test [1] (setting [8]) of 570 nM. In addition, the MIC in the test with Staphylococcus aureus (setting [9]) is 0.39 µM (≈ 0.196 µg/mL); with Staphylococcus aureus (setting [4]), 0.78 µM (≈ 0.391 µg/mL); with Staphylococcus aureus (setting [5]), 1.6 µM (≈ 0.802 µg/mL); with Streptococcus pneumoniae (setting [6]), 0.78 µM (≈ 0.391 µg/mL); in the test with Streptococcus pneumoniae (setting [7]), 0.78 µM (≈ 0.391 µg/mL); with Streptococcus pyogenes (Streptococcus pyogenes), 0.78 µM (≈ 0.391 µg/mL). Also, the MIC was 200 µM (≈ 100 µg/mL) in the test on Klebsiella pneumoniae, 25 µM (≈ 12.5 µg/mL) in the test on Escherichia coli, above 200 µM in the test with Pseudomonas aeruginosa and 0.78 µM (≈ 0.391 µg/mL) in the test on Haemophilus influenzae (setting [10]).
The compound `C[C@@H]1CN2c3c(cc4c(N5C(=O)OC[C@@H]5CF)noc4c3F)CC3(C(=O)NC(=O)NC3=O)[C@H]2[C@H](C)O1` [Example 15, (2R,4S,4aS)-11-Fluoro-8-[(4R)-4-(fluoromethyl)-2-oxo-1,3-oxazolidin-3-yl]-2,4-dimethyl-1,2,4,4a-tetrahydro-2′H,6H-spiro[1,4-oxazino[4,3-a][1,2]oxazolo[4,5-g]quinoline-5,5′-pyrimidine]-2′,4′,6′(1′H,3′H)-trione] displayed an IC50 in test [1] (setting [8]) of 130 nM. Further, the MIC with Staphylococcus aureus (setting [9]) is 0.28 µM (≈ 0.142 µg/mL); in the test on Staphylococcus aureus (setting [4]), 0.78 µM (≈ 0.394 µg/mL); in the test on Staphylococcus aureus (setting [5]), 0.39 µM (≈ 0.197 µg/mL); in the test on Streptococcus pneumoniae (setting [6]) it was 0.28 µM (≈ 0.142 µg/mL); in the test on Streptococcus pneumoniae (setting [7]), 0.39 µM (≈ 0.197 µg/mL); in the test on Streptococcus pyogenes (Streptococcus pyogenes), below 0.2 µM. Moreover, the MIC in the test on Klebsiella pneumoniae is above 200 µM; with Escherichia coli, 12 µM (≈ 6.07 µg/mL); with Pseudomonas aeruginosa, above 200 µM; in the test on Haemophilus influenzae (setting [10]) it was below 0.2 µM.
`C[C@@H]1CN2c3c(cc4c(N5C(=O)OC[C@@H]5CN=[N+]=[N-])noc4c3F)CC3(C(=O)NC(=O)NC3=O)[C@H]2[C@H](C)O1` [Example 48]: the IC50 in test [1] (setting [2]) was above 2100 nM. For the same compound, the MIC with Staphylococcus aureus (setting [3]) is listed as 6.2 µM (≈ 3.28 µg/mL); with Staphylococcus aureus (setting [4]) it was 12 µM (≈ 6.34 µg/mL); in the test on Staphylococcus aureus (setting [5]), 50 µM (≈ 26.4 µg/mL); in the test with Streptococcus pneumoniae (setting [6]), 12 µM (≈ 6.34 µg/mL); in the test with Streptococcus pneumoniae (setting [7]), 12 µM (≈ 6.34 µg/mL); in the test with Streptococcus pyogenes, 6.2 µM (≈ 3.28 µg/mL). The MIC in the test on Klebsiella pneumoniae is above 200 µM; in the test on Escherichia coli, 200 µM (≈ 106 µg/mL); with Haemophilus influenzae, 6.2 µM (≈ 3.28 µg/mL). Further, in the test on Pseudomonas aeruginosa, the “Pae MIC” value is above 200 µM.
In the case of `COC[C@H]1COC(=O)N1c1noc2c(F)c3c(cc12)CC1(C(=O)NC(=O)NC1=O)[C@H]1[C@H](C)O[C@H](C)CN31` (single isomer, unassigned) [Example 67], it took 330 nM to reach half-maximal inhibition in test [1] (setting [8]) (IC50). Further, the MIC with Staphylococcus aureus (setting [3]) amounted to 0.28 µM (≈ 0.145 µg/mL); in the test with Staphylococcus aureus (setting [4]) it was 0.55 µM (≈ 0.285 µg/mL); in the test on Staphylococcus aureus (setting [5]) it was 0.55 µM (≈ 0.285 µg/mL); with Streptococcus pneumoniae (setting [6]) it was 0.4 µM (≈ 0.207 µg/mL); in the test with Streptococcus pneumoniae (setting [7]), 0.55 µM (≈ 0.285 µg/mL); in the test with Streptococcus pyogenes, 0.28 µM (≈ 0.145 µg/mL). The MIC is reported as above 200 µM with Klebsiella pneumoniae, 25 µM (≈ 12.9 µg/mL) with Escherichia coli and 0.55 µM (≈ 0.285 µg/mL) in the test on Haemophilus influenzae. The “Pae MIC” value with Pseudomonas aeruginosa is above 200 µM.
In test [1] (setting [8]), `C[C@@H]1CN2c3c(cc4c(N5C(=O)OC[C@@H]5C)noc4c3Cl)CC3(C(=O)NC(=O)NC3=O)[C@H]2[C@H](C)O1` [Example 66, (2R,4S,4aS)-11-Chloro-2,4-dimethyl-8-((S)-4-methyl-2-oxooxazolidin-3-yl)-2,4,4a,6-tetrahydro-1H, 1′H-spiro[isoxazolo[4,5-g][1,4]oxazino[4,3-a]quinoline-5,5′-pyrimidine]-2′,4′,6′(3′H)-trione] gave an IC50 of 170 nM. Also, the MIC in the test on Staphylococcus aureus (setting [9]) came out at 0.39 µM (≈ 0.197 µg/mL); in the test on Staphylococcus aureus (setting [4]) it was 0.78 µM (≈ 0.393 µg/mL); in the test on Staphylococcus aureus (setting [5]) it was 0.78 µM (≈ 0.393 µg/mL); with Streptococcus pneumoniae (setting [6]) it was 0.39 µM (≈ 0.197 µg/mL); with Streptococcus pneumoniae (setting [7]) it was 0.78 µM (≈ 0.393 µg/mL); in the test on Streptococcus pyogenes (Streptococcus pyogenes) it was 0.39 µM (≈ 0.197 µg/mL). In addition, the MIC with Klebsiella pneumoniae was 100 µM (≈ 50.4 µg/mL); in the test on Escherichia coli it was 6.2 µM (≈ 3.12 µg/mL); with Pseudomonas aeruginosa, above 200 µM; in the test with Haemophilus influenzae (setting [10]) it was 0.78 µM (≈ 0.393 µg/mL).
`C[C@@H]1CN2c3c(cc4c(N5C(=O)OC[C@H]5c5ncccn5)noc4c3F)CC3(C(=O)NC(=O)NC3=O)[C@H]2[C@H](C)O1` [Example 63, (2R,4S,4aS)-11-Fluoro-2,4-dimethyl-8-((R)-2-oxo-4-(pyrimidin-2-yl)oxazolidin-3-yl)-2,4,4a,6-tetrahydro-1H,1′H-spiro[isoxazolo[4,5-g][1,4]oxazino[4,3-a]quinoline-5,5′-pyrimidine]-2′,4′,6′(3′H)-trione]: half-maximal inhibition in test [1] (setting [8]) (IC50) required 380 nM. Also, the MIC in the test with Staphylococcus aureus (setting [9]) was 0.78 µM (≈ 0.43 µg/mL); in the test on Staphylococcus aureus (setting [4]), 3.1 µM (≈ 1.71 µg/mL); in the test with Staphylococcus aureus (setting [5]), above 200 µM; in the test on Streptococcus pneumoniae (setting [6]) it was 0.39 µM (≈ 0.215 µg/mL); in the test on Streptococcus pneumoniae (setting [7]), 0.39 µM (≈ 0.215 µg/mL); in the test with Streptococcus pyogenes (Streptococcus pyogenes), 0.39 µM (≈ 0.215 µg/mL). The MIC in the test with Klebsiella pneumoniae was above 200 µM; in the test with Escherichia coli, 100 µM (≈ 55.1 µg/mL); with Pseudomonas aeruginosa it was above 200 µM; with Haemophilus influenzae (setting [10]), 0.39 µM (≈ 0.215 µg/mL).
`CO[C@@H](C)[C@@H]1COC(=O)N1c1noc2c(F)c3c(cc12)CC1(C(=O)NC(=O)NC1=O)[C@H]1[C@H](C)O[C@H](C)CN31` [Example 60]: the IC50 in test [1] (setting [8]) turned out to be 950 nM. The MIC amounted to 0.78 µM (≈ 0.415 µg/mL) in the test with Staphylococcus aureus (setting [9]); 1.6 µM (≈ 0.85 µg/mL) in the test on Staphylococcus aureus (setting [4]); 1.6 µM (≈ 0.85 µg/mL) in the test with Staphylococcus aureus (setting [5]); 1.6 µM (≈ 0.85 µg/mL) in the test with Streptococcus pneumoniae (setting [6]); 1.6 µM (≈ 0.85 µg/mL) with Streptococcus pneumoniae (setting [7]); 1.6 µM (≈ 0.85 µg/mL) with Streptococcus pyogenes (Streptococcus pyogenes). In addition, the MIC with Klebsiella pneumoniae is above 200 µM; in the test on Escherichia coli it was 100 µM (≈ 53.1 µg/mL); in the test on Pseudomonas aeruginosa, above 200 µM; in the test on Haemophilus influenzae (setting [10]), 1.6 µM (≈ 0.85 µg/mL).
Consider `C[C@@H]1CN2c3c(cc4c(N5C(=O)OC[C@@H]5c5ccncc5)noc4c3F)CC3(C(=O)NC(=O)NC3=O)[C@H]2[C@H](C)O1` [Example 58, (2R,4S,4aS)-11-fluoro-2,4-dimethyl-8-((S)-2-oxo-4-(pyridin-4-yl)oxazolidin-3-yl)-2,4,4a,6-tetrahydro-1H,1′H-spiro[isoxazolo[4,5-g][1,4]oxazino[4,3-a]quinoline-5,5′-pyrimidine]-2′,4′,6′(3′H)-trione], for which the IC50 in test [1] (setting [8]) worked out at 1500 nM. Besides, the MIC with Staphylococcus aureus (setting [9]) is 12 µM (≈ 6.61 µg/mL); in the test on Staphylococcus aureus (setting [4]), 50 µM (≈ 27.5 µg/mL); in the test with Staphylococcus aureus (setting [5]), 50 µM (≈ 27.5 µg/mL); in the test on Streptococcus pneumoniae (setting [6]), 50 µM (≈ 27.5 µg/mL); in the test with Streptococcus pneumoniae (setting [7]), 25 µM (≈ 13.8 µg/mL); with Streptococcus pyogenes (Streptococcus pyogenes) it was 12 µM (≈ 6.61 µg/mL). Besides, the MIC in the test with Klebsiella pneumoniae is above 200 µM; in the test on Escherichia coli, above 200 µM; with Pseudomonas aeruginosa, above 200 µM; with Haemophilus influenzae (setting [10]), 6.2 µM (≈ 3.41 µg/mL).
